# Reference: ChEMBL document CHEMBL2401728, “An unexpected Dimroth rearrangement leading to annelated thieno[3,2-d][1,2,3]triazolo[1,5-a]pyrimidines with potent antitumor activity” (Eur J Med Chem, 2013)
# Assays:
# Type in all cases: functional
# SK-OV-3 = test: Cytotoxicity against human SKOV3 cells assessed as cellular growth at 10 uM after 48 hrs by SRB assay relative to control
# MDA-MB-468 = test: Cytotoxicity against human MDA-MB-468 cells after 48 hrs by SRB assay; details: MDA-MB-468, 48 h
# LOX IMVI = test: Cytotoxicity against human LOXIMVI cells assessed as cellular growth at 0.01 uM after 48 hrs by SRB assay relative to control
# M14 = test: Cytotoxicity against human M14 cells assessed as cellular growth at 1 uM after 48 hrs by SRB assay relative to control
# KM12 = test: Cytotoxicity against human KM12 cells after 48 hrs by SRB assay; details: KM12, 48 h
# HCT-15 [1] = test: Cytotoxicity against human HCT15 cells assessed as cellular growth at 0.01 uM after 48 hrs by SRB assay relative to control
# SK-MEL-5 = test: Cytotoxicity against human SK-MEL-5 cells assessed as cellular growth at 0.1 uM after 48 hrs by SRB assay relative to control
# SR = test: Cytotoxicity against human SR cells assessed as cellular growth at 100 uM after 48 hrs by SRB assay relative to control
# HL-60(TB) = test: Cytotoxicity against human HL-60(TB) cells assessed as cellular growth at 0.1 uM after 48 hrs by SRB assay relative to control
# SF-539 [2] = test: Cytotoxicity against human SF539 cells assessed as cellular growth at 0.1 uM after 48 hrs by SRB assay relative to control
# SF-539 [3] = test: Cytotoxicity against human SF539 cells assessed as cellular growth at 100 uM after 48 hrs by SRB assay relative to control
# MDA-MB-231 = test: Cytotoxicity against human MDA-MB-231 cells after 48 hrs by SRB assay; details: MDA-MB-231, 48 h
# ACHN = test: Cytotoxicity against human ACHN cells assessed as cellular growth at 1 uM after 48 hrs by SRB assay relative to control
# NCI-H322M = test: Cytotoxicity against human NCI-H322M cells after 48 hrs by SRB assay
# DU-145 = test: Cytotoxicity against human DU145 cells after 48 hrs by SRB assay; details: DU-145, 48 h
# IGROV-1 [4] = test: Cytotoxicity against human IGROV1 cells assessed as cellular growth at 0.1 uM after 48 hrs by SRB assay relative to control
# NCI-H23 = test: Cytotoxicity against human NCI-H23 cells after 48 hrs by SRB assay; details: NCI-H23, 48 h
# UO-31 = test: Cytotoxicity against human UO31 cells after 48 hrs by SRB assay; details: UO-31, 48 h
# OVCAR-8 [5] = test: Cytotoxicity against human OVCAR8 cells assessed as cellular growth at 0.01 uM after 48 hrs by SRB assay relative to control
# IGROV-1 [6] = test: Cytotoxicity against human IGROV1 cells assessed as cellular growth at 100 uM after 48 hrs by SRB assay relative to control
# OVCAR-8 [7] = test: Cytotoxicity against human OVCAR8 cells assessed as cellular growth at 0.1 uM after 48 hrs by SRB assay relative to control
# COLO 205 = test: Cytotoxicity against human COLO205 cells assessed as cellular growth at 100 uM after 48 hrs by SRB assay relative to control
# A549 = test: Cytotoxicity against human A549 cells assessed as cellular growth at 0.01 uM after 48 hrs by SRB assay relative to control
# SK-MEL-28 [8] = test: Cytotoxicity against human SK-MEL-28 cells assessed as cellular growth at 1 uM after 48 hrs by SRB assay relative to control
# 786-0 = test: Cytotoxicity against human 786-0 cells assessed as cellular growth at 1 uM after 48 hrs by SRB assay relative to control
# [9] = Cytotoxicity against human EKVX cells assessed as cellular growth at 0.1 uM after 48 hrs by SRB assay relative to control
# SNB-75 [10] = test: Cytotoxicity against human SNB75 cells assessed as cellular growth at 0.01 uM after 48 hrs by SRB assay relative to control
# HCT-15 [11] = test: Cytotoxicity against human HCT15 cells after 48 hrs by SRB assay; details: HCT-15, 48 h
# SK-MEL-28 [12] = test: Cytotoxicity against human SK-MEL-28 cells assessed as cellular growth at 0.01 uM after 48 hrs by SRB assay relative to control
# NCI-H226 = test: Cytotoxicity against human NCI-H226 cells after 48 hrs by SRB assay; details: NCI-H226, 48 h
# BT-549 = test: Cytotoxicity against human BT549 cells assessed as cellular growth at 0.1 uM after 48 hrs by SRB assay relative to control
# OVCAR-3 = test: Cytotoxicity against human OVCAR3 cells assessed as cellular growth at 0.01 uM after 48 hrs by SRB assay relative to control
# MCF7 = test: Cytotoxicity against human MCF7 cells assessed as cellular growth at 0.01 uM after 48 hrs by SRB assay relative to control
# SNB-75 [13] = test: Cytotoxicity against human SNB75 cells assessed as cellular growth at 0.1 uM after 48 hrs by SRB assay relative to control
# [14] = read-out: LC50 (the source's name)
# [15] = read-out: pLC50 (the source's name) (converted)
structure (smiles),measurement,setting,value
O=C(O)CCCn1c2c(sc3ccccc32)c(=O)n2nnc(-c3ccccc3)c12,Activity,SK-OV-3,90.82%
O=C(CCCn1c2c(sc3ccccc32)c(=O)n2nnc(-c3ccccc3)c12)NCCc1c[nH]cn1,GI50,MDA-MB-468; read-out: GI50,0.339 µM
same,CC50,MDA-MB-468; [14],3.77 µM
same,TGI,MDA-MB-468; read-out: TGI,1.21 µM
same,GI50,MDA-MB-468; read-out: pGI50 (converted),0.339 µM
same,CC50,MDA-MB-468; [15],3.8 µM
same,TGI,MDA-MB-468; read-out: pTGI (converted),1.2 µM
same,Activity,LOX IMVI,103%
same,Activity,M14,33%
same,GI50,KM12; read-out: GI50,0.336 µM
same,CC50,KM12; [14],4.88 µM
same,TGI,KM12; read-out: TGI,2.01 µM
same,GI50,KM12; read-out: pGI50 (converted),0.339 µM
same,CC50,KM12; [15],4.9 µM
same,TGI,KM12; read-out: pTGI (converted),2 µM
same,Activity,HCT-15 [1],96%
same,Activity,SK-OV-3,-6%
same,Activity,SK-MEL-5,90%
same,Activity,SR,-100%
same,Activity,HL-60(TB),43%
same,Activity,SF-539 [2],1%
same,Activity,SF-539 [3],-99%
same,GI50,MDA-MB-231; read-out: GI50,1.88 µM
same,LC50,MDA-MB-231; read-out: LC50,6.54 µM
same,TGI,MDA-MB-231; read-out: TGI,3.51 µM
same,GI50,MDA-MB-231; read-out: pGI50 (converted),1.86 µM
same,LC50,MDA-MB-231; read-out: pLC50 (converted),6.61 µM
same,TGI,MDA-MB-231; read-out: pTGI (converted),3.47 µM
same,Activity,ACHN,83%
same,GI50,NCI-H322M; read-out: GI50,2.75 µM
same,CC50,NCI-H322M; [14],39.2 µM
same,TGI,NCI-H322M; read-out: TGI,9.8 µM
same,GI50,NCI-H322M; read-out: pGI50 (converted),2.75 µM
same,CC50,NCI-H322M; [15],38.9 µM
same,TGI,NCI-H322M; read-out: pTGI (converted),9.77 µM
same,GI50,DU-145; read-out: GI50,1.07 µM
same,CC50,DU-145; [14],4.75 µM
same,TGI,DU-145; read-out: TGI,2.26 µM
same,GI50,DU-145; read-out: pGI50 (converted),1.07 µM
same,CC50,DU-145; [15],4.79 µM
same,TGI,DU-145; read-out: pTGI (converted),2.24 µM
same,Activity,IGROV-1 [4],50%
same,GI50,NCI-H23; read-out: GI50,1.34 µM
same,TGI,NCI-H23; read-out: TGI,3.52 µM
same,GI50,NCI-H23; read-out: pGI50 (converted),1.35 µM
same,TGI,NCI-H23; read-out: pTGI (converted),3.55 µM
same,GI50,UO-31; read-out: GI50,1.3 µM
same,CC50,UO-31; [14],5.22 µM
same,TGI,UO-31; read-out: TGI,2.61 µM
same,GI50,UO-31; read-out: pGI50 (converted),1.29 µM
same,CC50,UO-31; [15],5.25 µM
same,TGI,UO-31; read-out: pTGI (converted),2.63 µM
same,Activity,OVCAR-8 [5],42%
same,Activity,IGROV-1 [6],-63%
same,Activity,OVCAR-8 [7],33%
same,Activity,COLO 205,-100%
same,Activity,A549,103%
same,Activity,SK-MEL-28 [8],92%
same,Activity,786-0,53%
same,Activity,[9],83%
same,Activity,SNB-75 [10],103%
same,GI50,HCT-15 [11]; read-out: GI50,0.372 µM
same,CC50,HCT-15 [11]; [14],5.74 µM
same,TGI,HCT-15 [11]; read-out: TGI,1.9 µM
same,GI50,HCT-15 [11]; read-out: pGI50 (converted),0.372 µM
same,CC50,HCT-15 [11]; [15],5.75 µM
same,TGI,HCT-15 [11]; read-out: pTGI (converted),1.91 µM
same,Activity,SK-MEL-28 [12],117%
same,GI50,NCI-H226; read-out: GI50,2.75 µM
same,CC50,NCI-H226; [14],41.2 µM
same,TGI,NCI-H226; read-out: TGI,7.49 µM
same,GI50,NCI-H226; read-out: pGI50 (converted),2.75 µM
same,CC50,NCI-H226; [15],40.7 µM
same,TGI,NCI-H226; read-out: pTGI (converted),7.41 µM
same,Activity,BT-549,90%
same,Activity,OVCAR-3,133%
same,Activity,MCF7,98%
same,Activity,SNB-75 [13],115%
CN1CCN(CCCn2c3c(sc4ncccc43)c(=O)n3nnc(-c4ccccc4)c23)CC1,GI50,MDA-MB-468; read-out: GI50,1.82 µM
same,CC50,MDA-MB-468; [14],5.96 µM
same,TGI,MDA-MB-468; read-out: TGI,3.29 µM
same,GI50,MDA-MB-468; read-out: pGI50 (converted),1.82 µM
same,CC50,MDA-MB-468; [15],6.03 µM
same,TGI,MDA-MB-468; read-out: pTGI (converted),3.31 µM
same,Activity,LOX IMVI,93%
same,Activity,M14,97%
same,GI50,KM12; read-out: GI50,1.73 µM
same,CC50,KM12; [14],6.71 µM
same,TGI,KM12; read-out: TGI,3.41 µM
same,GI50,KM12; read-out: pGI50 (converted),1.74 µM
same,CC50,KM12; [15],6.76 µM
same,TGI,KM12; read-out: pTGI (converted),3.39 µM
same,Activity,HCT-15 [1],94%
same,Activity,SK-MEL-5,92%
same,Activity,SR,-42%
same,Activity,HL-60(TB),91%
same,Activity,SF-539 [2],89%
same,Activity,SF-539 [3],-69%
same,GI50,MDA-MB-231; read-out: GI50,1.7 µM
same,TGI,MDA-MB-231; read-out: TGI,3.51 µM
same,GI50,MDA-MB-231; read-out: pGI50 (converted),1.7 µM
same,TGI,MDA-MB-231; read-out: pTGI (converted),3.55 µM
same,Activity,ACHN,84%
same,GI50,NCI-H322M; read-out: GI50,1.74 µM
same,CC50,NCI-H322M; [14],6.96 µM
same,TGI,NCI-H322M; read-out: TGI,3.48 µM
same,GI50,NCI-H322M; read-out: pGI50 (converted),1.74 µM
same,CC50,NCI-H322M; [15],6.92 µM
same,TGI,NCI-H322M; read-out: pTGI (converted),3.47 µM
same,GI50,DU-145; read-out: GI50,1.85 µM
same,CC50,DU-145; [14],7.24 µM
same,TGI,DU-145; read-out: TGI,3.66 µM
same,GI50,DU-145; read-out: pGI50 (converted),1.86 µM
same,CC50,DU-145; [15],7.24 µM
same,TGI,DU-145; read-out: pTGI (converted),3.63 µM
same,Activity,IGROV-1 [4],96%
same,GI50,NCI-H23; read-out: GI50,2.14 µM
same,CC50,NCI-H23; [14],33.7 µM
same,TGI,NCI-H23; read-out: TGI,5.07 µM
same,GI50,NCI-H23; read-out: pGI50 (converted),2.14 µM
same,CC50,NCI-H23; [15],33.9 µM
same,TGI,NCI-H23; read-out: pTGI (converted),5.13 µM
same,GI50,UO-31; read-out: GI50,1.03 µM
same,CC50,UO-31; [14],5.94 µM
same,TGI,UO-31; read-out: TGI,2.47 µM
same,GI50,UO-31; read-out: pGI50 (converted),1.02 µM
same,CC50,UO-31; [15],5.89 µM
same,TGI,UO-31; read-out: pTGI (converted),2.45 µM
same,Activity,OVCAR-8 [5],97%
same,Activity,IGROV-1 [6],-75%
same,Activity,OVCAR-8 [7],94%
same,Activity,COLO 205,-86%
same,Activity,A549,97%
same,Activity,SK-MEL-28 [8],99%
same,Activity,786-0,100%
same,Activity,[9],92%
same,Activity,SNB-75 [10],76%
same,GI50,HCT-15 [11]; read-out: GI50,1.82 µM
same,CC50,HCT-15 [11]; [14],8.26 µM
same,TGI,HCT-15 [11]; read-out: TGI,3.88 µM
same,GI50,HCT-15 [11]; read-out: pGI50 (converted),1.82 µM
same,CC50,HCT-15 [11]; [15],8.32 µM
same,TGI,HCT-15 [11]; read-out: pTGI (converted),3.89 µM
same,Activity,SK-MEL-28 [12],100%
same,GI50,NCI-H226; read-out: GI50,13.9 µM
same,CC50,NCI-H226; [14],64.2 µM
same,TGI,NCI-H226; read-out: TGI,29.8 µM
same,GI50,NCI-H226; read-out: pGI50 (converted),13.8 µM
same,CC50,NCI-H226; [15],64.6 µM
same,TGI,NCI-H226; read-out: pTGI (converted),29.5 µM
same,Activity,BT-549,98%
same,Activity,OVCAR-3,100%
same,Activity,MCF7,91%
same,Activity,SNB-75 [13],71%
